The values that follow are results of earlier work, collected in patent US8202858B2, “Vasopressin V1a antagonists” (priority 2004, dated 2012).

SMILES strings stand for the structures.

The target of this data set is T1, V1a vasopressin receptor (Homo sapiens, UniProt P37288).
T1 construct: host or cells: patients (clinical study)
Particulars: patients with dysmenorrhoea, compared to placebo.

T1 sequence (P37288 whole entry): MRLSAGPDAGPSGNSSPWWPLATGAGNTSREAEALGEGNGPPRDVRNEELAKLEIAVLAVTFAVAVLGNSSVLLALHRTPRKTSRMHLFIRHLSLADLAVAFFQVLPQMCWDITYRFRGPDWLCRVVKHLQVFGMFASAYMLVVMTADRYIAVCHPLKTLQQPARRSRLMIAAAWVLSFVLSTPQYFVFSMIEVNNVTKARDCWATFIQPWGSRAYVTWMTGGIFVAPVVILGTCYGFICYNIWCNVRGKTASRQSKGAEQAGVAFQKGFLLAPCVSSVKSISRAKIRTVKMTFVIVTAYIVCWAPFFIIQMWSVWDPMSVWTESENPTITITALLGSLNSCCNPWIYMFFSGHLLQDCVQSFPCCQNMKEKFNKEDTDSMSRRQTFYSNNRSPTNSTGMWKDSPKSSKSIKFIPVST

Take `COc1ccc(S(=O)(=O)N2c3ccc(Cl)cc3[C@](O)(c3ccccc3Cl)[C@@H]2C(=O)N2CCC[C@H]2C(N)=O)cc1OC` [SR49059]: the “amount of additional pain-killer taken” value was “dose-related decrease in the amount of additional pain-killer taken” and the pain result is reported as “dose-related decrease in pain”.
